Measurements: patent publication US11427549B2, “Pyrimidinyloxy benzo-fused compounds as herbicides” (FMC Corporation, priority 2017, dated 2022)

Columns and labels:
[1] = tested on: foxtail, giant (giant foxtail, Setaria faberii); experiment: Test A preemergence, foxtail, giant; assay type: in vivo; conditions: Setaria faberi, pre-emergence, 240 h, 0 to 100 scale (0 no effect, 100 complete control), read-out: Plant response rating, Foxtail, Giant; for pest or weed control at 31 g/ha: 31 g ai/ha; for pest or weed control at 125 g/ha: 125 g ai/ha
Excerpt: (§1) Seeds of plant species selected from barnyardgrass (Echinochloa crus-galli), kochia (Kochia scoparia), ragweed (common ragweed, Ambrosia elatior), ryegrass, Italian (Italian ryegrass, Lolium multiflorum), foxtail, giant (giant foxtail, Setaria faberii), foxtail, green (green foxtail, Setaria viridis) and pigweed (Amaranthus retroflexus) were planted into a blend of loam soil and sand and treated preemergence with a directed soil spray using test chemicals formulated in a non-phytotoxic solvent mixture which included a surfactant.
(§2) At the same time, plants selected from these weed species and also wheat (Triticum aestivum), corn (Zea mays), blackgrass (Alopecurus myosuroides), and galium (catchweed bedstraw, Galium aparine) were planted in pots containing the same blend of loam soil and sand and treated with postemergence applications of test chemicals formulated in the same manner. Plants ranged in height from 2 to 10 cm and were in the one- to two-leaf stage for the postemergence treatment. Treated plants and untreated controls were maintained in a greenhouse for approximately 10 days, after which time all treated plants were compared to untreated controls and visually evaluated for injury. […] A dash (-) response means no test result.

[2] = tested on: foxtail, giant (giant foxtail, Setaria faberii); experiment: Test A postemergence, foxtail, giant; assay type: in vivo; conditions: Setaria faberi, post-emergence, 240 h, 0 to 100 scale (0 no effect, 100 complete control), read-out: Plant response rating, Foxtail, Giant; for pest or weed control at 31 g/ha: 31 g ai/ha; for pest or weed control at 125 g/ha: 125 g ai/ha
Excerpt: as §1, §2

[3] = tested on: foxtail, green (green foxtail, Setaria viridis); experiment: Test A postemergence, foxtail, green; assay type: in vivo; conditions: Setaria, post-emergence, 240 h, 0 to 100 scale (0 no effect, 100 complete control), read-out: Plant response rating, Foxtail, Green; for pest or weed control at 31 g/ha: 31 g ai/ha; for pest or weed control at 125 g/ha: 125 g ai/ha; for pest or weed control at 500 g/ha: 500 g ai/ha
Excerpt: as §1, §2

In the case of O=C1OC(CCC(F)(F)F)Cc2c(Oc3ncc(Cl)cn3)cccc21 (stereo not shown) [Compound 23, 5-[(5-Chloro-2-pyrimidinyl)oxy]-3,4-dihydro-3-(3,3,3-trifluoropropyl)-1H-2-benzopyran-1-one], the pest or weed control at 31 g/ha [1] is reported as 0%, the pest or weed control at 125 g/ha [1] is reported as 40% and the pest or weed control at 31 g/ha [2] is reported as 0%. For the same molecule, the pest or weed control at 125 g/ha [2] was 10% and the melting point was 117 to 121 °C.
O=C1CC(CCC(F)(F)F)c2c(Oc3ncc(Cl)cn3)cccc21 (stereo not shown) [Compound 11, 4-[(5-Chloro-2-pyrimidinyl)oxy]-2,3-dihydro-3-(3,3,3-trifluoropropyl)-1H-inden-1-one] showed a pest or weed control at 31 g/ha [3] of 0% and a pest or weed control at 125 g/ha [3] of 10%.
In the case of O=C1OC(CCCC(F)(F)F)c2c(Oc3ncc(Cl)cn3)cccc21 (stereo not shown) [Compound 1, 4-[(5-Chloro-2-pyrimidinyl)oxy]-3-(4,4,4-trifluorobutyl)-1(3H)-isobenzofuranone], the pest or weed control at 125 g/ha [3] is reported as 90% and the pest or weed control at 500 g/ha [3] is reported as 100%.
For O=C1O[C@H](CCC(F)(F)F)c2c(Oc3ncc(Cl)cn3)cccc21 [Compound 19, (3R)-4-[(5-Chloro-2-pyrimidinyl)oxy]-3-(3,3,3-trifluoropropyl)-1(3H)-isobenzofuranone], the pest or weed control at 31 g/ha [1] was 100%, the pest or weed control at 125 g/ha [1] was 100% and the pest or weed control at 31 g/ha [2] was 60%. For the same molecule, the pest or weed control at 125 g/ha [2] was 90% and the melting point was 94 to 99 °C.
O=C1Cc2cccc(Oc3ncc(Cl)cn3)c2C(CCCC(F)(F)F)O1 (stereo not shown) [Compound 17, 8-[(5-Chloro-2-pyrimidinyl)oxy]-1,4-dihydro-1-(4,4,4-trifluorobutyl)-3H-2-benzopyran-3-one] showed a pest or weed control at 31 g/ha [1] of 10%, a pest or weed control at 125 g/ha [1] of 70% and a pest or weed control at 31 g/ha [2] of 20%. It also gave a pest or weed control at 125 g/ha [2] of 40% and a melting point of 125 to 129 °C.
For OC1(CCC(F)(F)F)CCc2cccc(Oc3ncc(Cl)cn3)c21 (stereo not shown) [Compound 14, 7-[(5-Chloro-2-pyrimidinyl)oxy]-2,3-dihydro-1-(3,3,3-trifluoropropyl)-1H-inden-1-ol], the pest or weed control at 125 g/ha [3] was 0% and the pest or weed control at 500 g/ha [3] was 50%.
O=C1COC(CCCC(F)(F)F)c2c(Oc3ncc(Cl)cn3)cccc21 (stereo not shown) [Compound 5, 8-[(5-Chloro-2-pyrimidinyl)oxy]-1-(4,4,4-trifluorobutyl)-1H-2-benzopyran-4(3H)-one] showed a pest or weed control at 31 g/ha [3] of 10% and a pest or weed control at 125 g/ha [3] of 10%.
Work on O=C1OC(CCCCC(F)(F)F)Cc2c(Oc3ncc(Cl)cn3)cccc21 (stereo not shown) [Compound 31, 5-[(5-Chloro-2-pyrimidinyl)oxy]-3,4-dihydro-3-(5,5,5-trifluoropentyl)-1H-2-benzopyran-1-one] yielded a pest or weed control at 31 g/ha [1] of 0%, a pest or weed control at 125 g/ha [1] of 0% and a pest or weed control at 31 g/ha [2] of 0%. The pest or weed control at 125 g/ha [2] was 0% and the melting point was 93 to 97 °C.
Molecule O=C1O[C@@H](CCCC(F)(F)F)c2c(Oc3ncc(Cl)cn3)cccc21 [Compound 2, (3S)-4-[(5-Chloro-2-pyrimidinyl)oxy]-3-(4,4,4-trifluorobutyl)-1-(3H)-isobenzofuranone] has a pest or weed control at 31 g/ha [3] of 0% and a pest or weed control at 125 g/ha [3] of 10%.
With O=C1O[C@@H](CCC(F)(F)F)c2c(Oc3ncc(Cl)cn3)cccc21 [Compound 18, (3S)-4-[(5-Chloro-2-pyrimidinyl)oxy]-3-(3,3,3-trifluoropropyl)-1(3H)-isobenzofuranone] the pest or weed control at 31 g/ha [1] was 0%, the pest or weed control at 125 g/ha [1] was 0% and the pest or weed control at 31 g/ha [2] was 0%. It also gave a pest or weed control at 125 g/ha [2] of 0% and a melting point of 99 to 101 °C.
O=C1O[C@H](CCCC(F)(F)F)c2c(Oc3ncc(Cl)cn3)cccc21 [Compound 3, (3R)-4-[(5-Chloro-2-pyrimidinyl)oxy]-3-(4,4,4-trifluorobutyl)-1-(3H)-isobenzofuranone] showed a pest or weed control at 31 g/ha [3] of 40% and a pest or weed control at 125 g/ha [3] of 100%.
Work on CCCC1OC(=O)Cc2cccc(Oc3ncc(Cl)cn3)c21 (stereo not shown) [Compound 35, 8-[(5-Chloro-2-pyrimidinyl)oxy]-1,4-dihydro-1-propyl-3H-2-benzopyran-3-one] yielded a pest or weed control at 31 g/ha [3] of 10%, a pest or weed control at 125 g/ha [3] of 10% and a melting point of 136 to 140 °C.
FC(F)(F)CCC1OCc2cccc(Oc3ncc(Cl)cn3)c21 (stereo not shown) [Compound 8, 5-Chloro-2-[[1,3-dihydro-3-(3,3,3-trifluoropropyl)-4-isobenzofuranyl]oxy]pyrimidine] gave a pest or weed control at 31 g/ha [3] of 20% and a pest or weed control at 125 g/ha [3] of 70%.
Work on O=C1NC(CCCC(F)(F)F)c2c(Oc3ncc(Cl)cn3)cccc21 (stereo not shown) [Compound 13, 4-[(5-Chloro-2-pyrimidinyl)oxy]-2,3-dihydro-3-(4,4,4-trifluorobutyl)-1H-isoindol-1-one] yielded a pest or weed control at 31 g/ha [3] of 0% and a pest or weed control at 125 g/ha [3] of 0%.
Molecule O=C1OC(CCC(F)(F)F)c2c(Oc3ncc(Cl)cn3)cccc21 (stereo not shown) [Compound 4, 4-[(5-Chloro-2-pyrimidinyl)oxy]-3-(3,3,3-trifluoropropyl)-1(3H)-isobenzofuranone] has a pest or weed control at 31 g/ha [3] of 30% and a pest or weed control at 125 g/ha [3] of 90%.
Molecule FC(F)(F)CCCC1OCc2cccc(Oc3ncc(Cl)cn3)c21 (stereo not shown) [Compound 7, 5-chloro-2-[[1,3-dihydro-3-(4,4,4-trifluorobutyl)-4-isobenzofuranyl]oxy]-pyrimidine] has a pest or weed control at 31 g/ha [3] of 30% and a pest or weed control at 125 g/ha [3] of 90%.
Molecule FC(F)(F)CCCC1CCc2cccc(Oc3ncc(Cl)cn3)c21 (stereo not shown) [Compound 9, 5-Chloro-2-[[2,3-dihydro-3-(4,4,4-trifluorobutyl)-1H-inden-4-yl]oxy]pyrimidine] has a pest or weed control at 31 g/ha [3] of 20% and a pest or weed control at 125 g/ha [3] of 60%.
With OC1CC(CCCC(F)(F)F)c2c(Oc3ncc(Cl)cn3)cccc21 (stereo not shown) [Compound 10, 4-[(5-Chloro-2-pyrimidinyl)oxy]-2,3-dihydro-3-(4,4,4-trifluorobutyl)-1H-inden-1-ol] the pest or weed control at 31 g/ha [3] was 10% and the pest or weed control at 125 g/ha [3] was 50%.
Work on CN1C(=O)c2cccc(Oc3ncc(Cl)cn3)c2C1CCCC(F)(F)F (stereo not shown) [Compound 12, 4-[(5-Chloro-2-pyrimidinyl)oxy]-2,3-dihydro-2-methyl-3-(4,4,4-trifluorobutyl)-1H-isoindol-1-one] yielded a pest or weed control at 31 g/ha [3] of 0% and a pest or weed control at 125 g/ha [3] of 10%.
For O=C1Cc2cccc(Oc3ncc(Cl)cn3)c2C(CCC(F)(F)F)O1 (stereo not shown) [Compound 28, 8-[(5-Chloro-2-pyrimidinyl)oxy]-1,4-dihydro-1-(3,3,3-trifluoropropyl)-3H-2-benzopyran-3-one], the pest or weed control at 31 g/ha [1] was 10%, the pest or weed control at 125 g/ha [1] was 100% and the pest or weed control at 31 g/ha [2] was 10%. The pest or weed control at 125 g/ha [2] was 20% and the melting point was 122 to 126 °C.
In the case of FC(F)(F)CCCC1COc2cccc(Oc3ncc(Cl)cn3)c21 (stereo not shown) [Compound 33, 5-Chloro-2-[[2,3-dihydro-3-(4,4,4-trifluorobutyl)-4-benzofuranyl]oxy]pyrimidine], the pest or weed control at 31 g/ha [1] is reported as 10%, the pest or weed control at 125 g/ha [1] is reported as 100% and the pest or weed control at 31 g/ha [2] is reported as 20%. For the same molecule, the pest or weed control at 125 g/ha [2] was 20%.
With FC(F)(F)CC[C@H]1OCc2cccc(Oc3ncc(Cl)cn3)c21 [Compound 20, 5-Chloro-2-[[(3R)-1,3-dihydro-3-(3,3,3-trifluoropropyl)-4-isobenzofuranyl]oxy]-pyrimidine] the pest or weed control at 31 g/ha [1] was 100%, the pest or weed control at 125 g/ha [1] was 100% and the pest or weed control at 31 g/ha [2] was 50%. The pest or weed control at 125 g/ha [2] was 90%.
